Columns and labels:
[1] = tested on: mouse islets; test: Glucose stimulated static incubation assay, mouse islets
Protocol: Cytokine & Withaferin A Treatment: After isolation and overnight culture, islets were subjected to an in-vitro model of inflammatory conditions with a cytokine cocktail of the species specific recombinant proteins (1,000 U/mL TNF-α, 1,000 U/mL IFN-γ, and 50 U/mL IL-1β dissolved in human or mouse islet culture media). Islets were treated by Withaferin A co-culture at concentrations ranging from 0.25 to 2.0 μg/mL. Control islets were cultured in the appropriate culture media lacking both the cytokine cocktail and Withaferin A. All islets were cultured in a humidified incubation chamber at 37° C. with 5% CO2 for the indicated time.
Glucose Stimulated Static Incubation Assay: Islets in each experimental condition were incubated with low (2.8 mM) and then high (20.0 mM) concentrations of glucose solution in Functionality/Viability Medium CMRL1066 (Mediatech, Inc. Manassas, Va.) for 1 hour each at 37° C. Insulin concentrations were measured by an insulin ELISA kit (ALPCO Diagnostics, Salem, N.H.). The insulin secretion levels were normalized by total DNA of the stimulated islets. Studies were performed in triplicate with 10 islets in each group.

[2] = tested on: islets; test: FDA/PI staining islet viability, dose effect study; conditions: 48 hours culture
Protocol: Viability was assessed using fluorescein diacetate (FDA) and propidium iodide (PI). Islets used for the studies were 80 to 90% viable, with a purity of 60 to 85%. Human islets used were handpicked to greater than 95% purity. Islets were cultured with CMRL-based human islet culture media containing 0.1% BSA with Kanamycin at 37° C.
The viability and apoptosis test of islet with four different concentrations of Withaferin A (0.5 μg/mL, 1 μg/mL, 2 μg/mL and 4 μg/mL) was examined. FDA/PI staining was used to determine the islet viability.

[3] = tested on: MIN6, a mouse beta cell line; test: RT-PCR gene expression in MIN6 cells; assay type: cell-based
Protocol: RT-PCR Inflammation Array and Primer Assays: After proper time of treatment, islets were harvested and lysed in lysis buffer (Stratagene, La Jolla Calif.). RNA was purified by Absolutely RNA Miniprep kit (Stratagene) and then reverse transcribed into cDNA by RT2 Firststrand kit (SABiosciences, Frederick Md.). […] The RT-PCR reaction was run in Stratagene MX3000 with following program: 95° C., 10 minutes; 40 cycles of (95° C., 15 second; and 60° C., 60 second). Cycle threshold data was uploaded to a Web-Based PCR Array Data Analysis on SABiociences website and fold change compared to control was analyzed.
Procedure for single gene primer assays was the same except primers of particular genes other than the whole array plate were used.

[4] = tested on: islets; test: TUNEL assay, FITC positive population, dose effect study
Protocol: The present inventors conducted a dose effect study of Withaferin A on islets. […] The viability and apoptosis test of islet with four different concentrations of Withaferin A (0.5 μg/mL, 1 μg/mL, 2 μg/mL and 4 μg/mL) was examined. FDA/PI staining was used to determine the islet viability.

[5] = tested on: G-CSF, IL-2, IL-6, IL-8, IP-10, MCP-1, IL-1α, TNF-α, MIP-1α, MIP-1β secreted by human islets; test: Secreted inflammatory cytokines and chemokines (Luminex); assay type: cell-based; conditions: 96 hours
Protocol: Supernatant was collected and analyzed in duplicate with Millipore's human cytokine detection kit in the Luminex 200®. Results were standardized to the number of islets. Graphical representations are expressed as means±STD. Significant differences between mean values groups as determined by Turkey-Kramer post-hoc tests are indicated by an asterisk (*p<0.05) above bars;
Measurement of Secreted Inflammatory Cytokines and Chemokines: Fifty human islets were cultured in human islet culture media for 96 hours with the cytokine and Withaferin A treatment. Secretion of proinflammatory cytokines was determined by measuring cell culture supernatant in a Luminex 200 with a human inflammatory cytokine MagPlex kit (Millipore, Billerica, Mass.). The bead assay was performed according to the manufacturer's instructions with samples in duplicate.
In this study cell culture supernatants from human islets exposed to cytokines and Withaferin A was evaluated by a multiplex bead assay using Luminex® technology. The cell culture supernatant from which the samples were taken for Luminex analysis contained fifty, pure, hand-picked human islets, which had been cultured at 22° C. for over a week to decrease resident macrophage numbers that might interfere (N=10).

[6] = IPGTT on day 30 post transplant; assay type: in vivo, C57BL/6 mice
Protocol: Intraperitoneal glucose tolerance test was performed on day 30 post transplant to assess glycemic control of Withaferin A-treated and vehicle-treated (11E) mice; also naïve and STZ-induced diabetic mice were challenged with glucose for comparison. After 12-14 hours of fasting, mice were injected with a 5% glucose solution (1 mg/kg body weight) and blood glucose levels were monitored at 0, 30, and 120 minutes afterwards.
IPGTT: Naïve, transplanted, and STZ induced diabetic mice were used to perform an intraperitoneal glucose tolerance test. The mouse's food was removed for 12-14 hours, then an injection of glucose (1 mg/kg body weight, 5% glucose solution in DPBS) was administered intraperitoneally. Blood glucose was monitored with Accu-Chek at 0, 30, and 120 minutes after the injection.
To evaluate the islet graft function, IPGTT was performed on cured mice and vehicle treated mice on day 30. To control for the pattern in islet function, naïve and STZ-induced diabetic mice were tested as well. After 12 to 14 hours of fasting, mice were injected with a 5% glucose solution (2 mg/kg body weight) and blood sugar levels were measured at zero, thirty, and one hundred twenty minutes after the injection.

[7] = tested on: inflammatory cytokines and chemokines (iNOS, IL-1β, RANTES, MIG, IP-10) in human islets; conditions: human islets exposed to inflammatory cytokines, qPCR; cited from earlier work
[8] = tested on: IκB in human islets and β-cell lines; test: Western blotting of IκB after cytokine cocktail; assay type: cell-based; conditions: cytokines 20 min
Protocol: Graphical representations (6B) are expressed as means±STD. Asterisks above bars indicate statistically significant differences in mean values (*p<0.05, **p<0.01, ***p<0.001) between treatments and controls (black bars) for each cell type based on two-tailed Student's t test;
Western Blotting: Cells were treated with cytokines for 20 min, then harvested in lysis buffer containing 50 mM HEPES, pH 7.5, 150 mM NaCl, 1% Triton X-100, 0.2 mg/mL phenylmethylsulfonyl fluoride (PMSF), 0.1 M NaF, 2 mM Na3VO4, 10 μg/mL aprotinin, 5 μg/mL pepstatin A, and 5 μg/mL leupeptin. Proteins were subjected to SDS/polyacrylamide gel electrophoresis and electrotransferred to nitrocellulose membranes. Membranes were blocked with 5% milk in Tris-buffered saline containing 0.1% Tween-20 (TBST) pH 7.4 for 2 hours, incubated with primary antibody for 1 hour at 4° C., and washed three times with TBST. Primary antibodies were IkB-α (C-21) (Santa Cruz) and ERK1/2 as described.^21 Membranes were then incubated with secondary antibodies conjugated to DyLight 680 and 800 fluorescent dyes (Cell Signaling) to detect proteins using an ODYSSEY Infrared Imaging System (LI-COR).

[9] = tested on: human islets; test: Viability determination by Hoechst 342/PI, human islets; assay type: cell-based; conditions: for viability of human islets exposed to cytokines: 24 hours (cytokines 85.8±3.9%, control 93.5±3.2%)
Protocol: FIGS. 5A-5D show the optimal Withaferin A dosing is found without toxicity to islets: Human (5A and 5B) and mouse (5C and 5D) islets were cultured with Withaferin A. Samples were taken at 24 and 48 hours and stained with Hoechst 342 (all nuclei) and propidium iodide (necrotic nuclei). The percent viability was determined as the PI^+ area subtracted from the total area (Hoe342 stained). The optimal Withaferin A dose was determined to be 1.0 μg/mL Withaferin A for human islets (5A) and 0.5 μg/mL for mouse islets (5C). Asterisks above bars indicate statistically significant differences in mean values (*p<0.05 for 48 h and **p<0.001 for 24 and 48 hours) between controls and islets exposed to Withaferin A based on two-tailed Student's t test; N=10;
Viability Determination by Hoechst 342/PI: For immediate in vitro determination of necrosis, islets were incubated with Hoechst 342 (10 μg/mL) and propidium iodide (20 μg/mL) for 10 minutes at 37° C. before imaging via fluorescent microscopy. Fluorescent microsgraphs were merged in Image J (NIH Bethesda, Md.) and the propidium iodide positive area was divided by the Hoechst 342 positive area to provide a calculation of islet viability.

[10] = In vivo intraportal syngeneic islet transplant in STZ diabetic mice; parameters: species or system C57BL/6 mice
Protocol: Intraperitoneal glucose tolerance test was performed on day 30 post transplant to assess glycemic control of Withaferin A-treated and vehicle-treated (11E) mice; also naïve and STZ-induced diabetic mice were challenged with glucose for comparison. After 12-14 hours of fasting, mice were injected with a 5% glucose solution (1 mg/kg body weight) and blood glucose levels were monitored at 0, 30, and 120 minutes afterwards. […] After thirty days, hepatectomy of recipient mice was performed and the liver was fixed in formalin, embedded in paraffin and stained for insulin (11F) and H&E (11G).
In-vivo Intraportal Transplant: Diabetes was induced in by injecting streptozomycin (STZ 180 mg/kg, 9 mg/mL dissolved in DPBS) into the tail vein. Accu-Chek Aviva® (Roche Diagnostics, Indianapolis, Ind.) was used to monitor blood glucose from the tail vein, and mice were considered diabetic, when their blood glucose was measured as greater than 350 dg/mL for two days in a row. Mice were anesthetized with avertin (20 mg/mL, 0.5 mL/mouse), then two hundred islets were injected into the portal vein by puncturing the portal vein through the pancreas with a 27 gauge, hypodermic needle attached to a glass syringe. The peritoneum was first closed with 5-0 black silk sutures, and before sealing this closure, Withaferin A (25 ug, 0.5 mL/mouse) or vehicle (DPBS) was injected into the peritoneal space. […]
To determine only the anti-inflammatory effects of Withaferin A on islet transplantation, a syngeneic model was used. […] It was determined that 400 islets are required for successful transplantation into the portal vein of the liver for mice.
Daily intraperitoneal injections of Withaferin A (25 μg, 0.5 mL/mouse) for seven days post-transplant beginning immediately after islet infusion were performed on six mice. […] After 12 to 14 hours of fasting, mice were injected with a 5% glucose solution (2 mg/kg body weight) and blood sugar levels were measured at zero, thirty, and one hundred twenty minutes after the injection.

[11] = tested on: IP-10; test: Flow cytometry, intracellular IP-10 in islets; assay type: cell-based, human; conditions: islets treated with cytokine mix + Withaferin A (untreated 4214.15, cytokine mix 18024.08)
Text: The IP-10 expression level was examined by flow cytometry. After treatment, islets were fixed, permeablized and aliquoted to three tubes staining with anti-IP10.

[12] = tested on: MCP-1 and IP-10 in human islets; test: Fluorescent immunohistochemistry, mean fluorescent intensity of MCP-1 and IP-10; assay type: cell-based; conditions: cytokine cocktail + 0.5 μg/mL Withaferin A, 24 hours
Protocol: Islet sections were captured under similar conditions and mean fluorescent intensity values were measured. […] Significant differences between mean values groups as determined by Turkey-Kramer post-hoc tests are indicated by an asterisk (*p<0.05) above bars;
Immunohistochemistry: Engrafted livers and cytokine treated islets were preserved in 10% formalin, embedded in paraffin and sectioned at 5 μm. Tissue sections were deparaffinized in xylene (twice for 5 minutes) and series of ethanol gradients (100%, 95%, 90%, 80%, 70%, and 50% ethanol diluted with water for 2 minutes each). Next, sections were heated at 98° C. in 1× Antigen Retrieval Reagent-Universal (R&D Systems) for 20 minutes. Then tissue samples were blocked for non-specific bonding by AquaBlock (EastCoast Bio) for 1 hour at room temperature. Next the primary antibody, diluted in a background reducing antibody diluent, was applied overnight at 4° C. Next, the appropriate fluorescently conjugated secondary antibody (diluted 1000×) was applied for 1 hour at room temperature protected from light. […] Micrographs were imported to Image J, converted to 8-bit grayscale photos, then the mean fluorescence intensity was measured by limiting the region of interest to a single islet via the thresholding function of the program. Mean fluorescent intensity is calculated at the integrated density divided by the area in the region of interest.

[13] = tested on: NF-κB p65 in human β cells; test: p65 translocation assay; assay type: cell-based; conditions: 24 hours (control 21.6±5.3%, cytokines 41.3±13.5%)
Protocol: Graphical representations (7B) are expressed as means±STD. Asterisks above bars indicate significant differences in mean values (*p<0.05) as determined by Turkey-Kramer post-hoc tests;
p65 Translocation Assay: NF-κB, p65, translocation was determined by overlap of Alexa-488 labeled NF-κB and DAPI stained nuclei, pseudocolored red by Image J for visualization. […] Nuclei positive for activated NF-κB translocation was counted in insulin positive cells and divided by the total number of beta-cells.
To determine whether NF-κB has been activated and moved to the nucleus, immunohistochemistry was performed to locate the p65 portion of NF-κB as described elsewhere.^12 All nuclei in insulin positive human β cells were counted and when NF-κB was stained in the nucleus it was classified NF-κB^+ and nuclei without NF-κB were classified NF-κB^− (FIG. 7A). Percent NF-κB activation was measured at 24 hours after culture with the cytokine cocktail and Withaferin A (FIG. 7B).

**Q.** Which results are given for CC1=C(CO)C(=O)O[C@@H]([C@@H](C)[C@H]2CC[C@H]3[C@@H]4C[C@H]5O[C@]56[C@@H](O)C=CC(=O)[C@]6(C)[C@H]4CC[C@]23C)C1 [Withaferin A]?
**A.** stimulation index, mouse islets ([1]; 0.5 μg/mL, 24 hours, no cytokines (control 11.13±9.28)): 7.05±2.20; stimulation index, mouse islets exposed to cytokines ([1]; cytokines with or without Withaferin A, twenty four hours): did not show any significant differences; islet viability (FDA/PI) ([2]; 0.5 μg/mL): not decreased; islet viability (FDA/PI) ([2]; 1 μg/mL): not decreased; islet viability (FDA/PI) ([2]; 2 μg/mL): slight decrease; islet viability (FDA/PI) ([2]; 4 μg/mL): significant loss; IP10, RANTES and MCP-1 expression upregulated by cytokine treatment [3]: could be inhibited; FITC positive population (apoptosis cells) ([4]; 2 μg/mL): small increase; FITC positive population (apoptosis cells) ([4]; 4 μg/mL): dramatic increase; percentage of FITC positive population (apoptosis cells) ([4]; low Withaferin A dose samples (0.5 and 1 μg/mL)): close to zero; secreted inflammatory molecules ([5]; 1.0 μg/mL, cytokines, p<0.05): significant decrease; secreted levels of inflammatory cytokines and chemokines ([5]; human islets, cytokines + Withaferin A): decreased secreted levels of each molecule; blood glucose, IPGTT ([6]; 0 minutes, day 30 (vehicle 485±95.4)): 150.3 ± 89.2 mg/dL; blood glucose, IPGTT ([6]; 30 minutes, day 30 (vehicle 523.8±95.3)): 267.8 ± 84.8 mg/dL; decrease of mRNA levels of several chemokines [7]: ten-fold or more; IκB protein relative to ERK1/2 after cytokine cocktail [8]: prevented the reduction of IκB; viability of human islets ([9]; 0.5 μg/mL, 48 hours, no cytokines (control 91.8±7.4%)): 89.0±4.6%; viability of human islets ([9]; 1.0 μg/mL, 48 hours, no cytokines (control 91.8±7.4%)): 91.9±3.5%; viability of human islets ([9]; 2.0 μg/mL, 24 hours, no cytokines (control 94.9±4.5%)): 70.5±8.8%; viability of human islets exposed to cytokines ([9]; cytokine cocktail + 0.5 μg/mL): 92.6±5.1%; viability of human islets exposed to cytokines ([9]; cytokine cocktail + 1.0 μg/mL): 94.6±2.9%; optimal Withaferin A dose without toxicity to islets ([9]; human islets, 24 and 48 hours): 1.0 µg/mL; success rate (recipients achieving normoglycemia) ([10]; 200 islet isograft, 25 μg i.p. daily for 7 days (vehicle 0%)): 83%; mice with amelioration of diabetes / mice treated ([10]; 200 islet isograft, 25 μg i.p. daily for 7 days (vehicle 0/5)): 5/6; ideal dose in the in vivo mouse model ([10]; doses from 2.5 to 50 μg/mouse tested): 25 µg; IP-10 mean channel fluorescence [11]: 7318.94 (+/−78.21); IP-10 and MCP-1 levels within beta cells (mean fluorescent intensity) [12]: near control levels; percent NF-κB+ insulin positive cells ([13]; cytokine cocktail + 0.5 μg/mL): 19.5±8.1%; percent NF-κB+ cells ([13]; cytokine cocktail + 1.0 μg/mL): 10.0±4.1%
